Assay results reported in patent US7045316B2, “Transporter genes OATP-B,C,D, and E” (Chugai Seiyaku Kabushiki Kaisha, priority 1999, dated 2006).
Read-outs that look alike come from different tables or passages of the source.

Molecular target: T1, OATP-C protein (Homo sapiens, UniProt Q9Y6L6)
T1 sequence (Q9Y6L6 1-691): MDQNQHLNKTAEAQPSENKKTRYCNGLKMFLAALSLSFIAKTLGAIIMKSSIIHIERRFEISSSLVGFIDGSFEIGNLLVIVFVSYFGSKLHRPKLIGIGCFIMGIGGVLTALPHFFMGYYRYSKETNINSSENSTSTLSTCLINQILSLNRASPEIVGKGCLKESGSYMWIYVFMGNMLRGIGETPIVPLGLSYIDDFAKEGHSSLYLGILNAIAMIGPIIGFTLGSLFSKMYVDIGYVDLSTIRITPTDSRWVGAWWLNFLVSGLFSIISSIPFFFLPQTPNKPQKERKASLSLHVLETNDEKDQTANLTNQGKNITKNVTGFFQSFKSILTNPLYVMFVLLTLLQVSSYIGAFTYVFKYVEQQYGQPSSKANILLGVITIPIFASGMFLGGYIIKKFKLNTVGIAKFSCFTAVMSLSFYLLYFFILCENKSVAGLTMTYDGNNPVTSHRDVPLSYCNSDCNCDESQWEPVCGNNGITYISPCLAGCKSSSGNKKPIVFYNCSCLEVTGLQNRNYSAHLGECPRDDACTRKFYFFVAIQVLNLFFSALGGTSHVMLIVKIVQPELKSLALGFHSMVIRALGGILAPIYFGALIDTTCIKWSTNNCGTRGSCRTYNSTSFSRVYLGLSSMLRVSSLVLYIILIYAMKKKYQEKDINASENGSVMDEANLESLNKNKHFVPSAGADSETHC
Assay: Transport experiment: uptake of labeled substrates into HEK293 cells transfected with OATP-C
Description: The human fetal kidney-derived cell strain, HEK 293 cells, were transfected with the plasmid pcDNA3/OATP-C or the pcDNA3 vector containing no insert as a control (mock) by the calcium phosphate method. Specifically, the plasmid DNA (10 μg), a Hepes buffer solution (137 mM NaCl 5 mM KCl, 0.7 mM Na2HPO4, 6 mM dextrose, and 21 mM Hepes pH 7.1) (1 ml), and 2 M CaCl2 (62.5 μl) were mixed and the resultant mixture was allowed to stand at room temperature for 30 min or more to form calcium phosphate coprecipitates. After the cells were plated on 10-cm diameter plates at a concentration of 1.5×10^6 cells per plate, and the cells were cultured for 24 h. The above-described calcium phosphate coprecipitates were added thereto, and the cells were further cultured for 24 h. Then, plates were washed with phosphate buffered saline (PBS), and after the addition of fresh culture medium, the cells were further cultured for 24 h.
Transport experiment was performed using the cells transfected with the plasmid DNA according to the following procedures. The cells were detached from the plates using a rubber policeman, suspended in a transport buffer (containing 125 mM NaCl, 4.8 mM KCl, 5.6 mM (+)-glucose, 1.2 mM CaCl2, 1.2 mM KH2PO4, 1.2 mM MgSO4, and 25 mM Hepes pH 7.4), and pre-incubated for 20 min. […] Incubated cells were overlaid on a silicon layer formed by laying a mixture of silicon oil and liquid paraffin (specific gravity=1.022) on a 3 M KCl layer, and separated by centrifugation. Radioactivity of cells was measured to determine the into-the-cell transport activity. In this case, 1×10^6 cells were used as one point of cells.
Herein, the culture of HEK 293 cells was performed using Dulbecco's MEM containing 10% FCS (fetal calf serum) as the culture medium in an atmosphere of 5% carbon dioxide at 37° C.

[1] = HEK293 cells expressing OATP-C vs mock, labeled substrate, 37° C. (FIG. 3)

Structure (SMILES) | into-the-cell transport activity | into-the-cell transport activity [1] | alteration of transport mediated by OATP-C protein (chloride ion substituted with gluconate (FIG. 6)) | alteration of transport mediated by OATP-C protein (sodium ion replaced with N-methylglucamine (FIG. 6))
CN(Cc1cnc2nc(N)nc(N)c2n1)c1ccc(C(=O)N[C@@H](CCC(=O)O)C(=O)O)cc1 [methotrexate] | weak transport activity | – | – | –
C[C@@H]1O[C@@H](O[C@H]2C[C@@H](O)[C@]3(CO)[C@H]4[C@H](O)C[C@]5(C)[C@@H](C6=CC(=O)OC6)CC[C@]5(O)[C@@H]4CC[C@]3(O)C2)[C@H](O)[C@H](O)[C@H]1O [ouabain] | – | weak transport activity | – | –
C[C@]12CC[C@@H]3c4ccc(OS(=O)(=O)O)cc4CC[C@H]3[C@@H]1CCC2=O [estron-3-sulfate] | – | transport was obviously observed | – | –
CCCCC[C@H](O)/C=C/[C@H]1[C@H](O)CC(=O)[C@@H]1C/C=C\CCCC(=O)O [prostaglandin E2] | – | weak transport activity | – | –
C[C@]12CC[C@@H]3c4ccc(O)cc4CC[C@H]3[C@@H]1CC[C@@H]2O[C@@H]1O[C@H](C(=O)O)[C@@H](O)[C@H](O)[C@H]1O [estradiol-17β-glucuronide] | – | transport was obviously observed | No alteration | No alteration
